How the values were obtained:
[1] = biological target: T1, Vascular endothelial growth factor receptor 2 (Homo sapiens, UniProt P35968); assay: Inhibition of human unphosphorylated N-terminal-His6 tagged VEGFR2 catalytic domain using 5-FAM-EEPLYWSFPAKKK-CONH2 as substrate after 60 mins by mobility shift assay
[2] = biological target: T1, Vascular endothelial growth factor receptor 2; assay: Inhibition of human phosphorylated N-terminal-His6 tagged VEGFR2 catalytic domain using 5-FAM-EEPLYWSFPAKKK-CONH2 as substrate after 60 mins by mobility shift assay
[3] = biological target: T1, Vascular endothelial growth factor receptor 2; conditions: 100 uM

T1 sequence (P35968 whole entry, the tested form may be a part): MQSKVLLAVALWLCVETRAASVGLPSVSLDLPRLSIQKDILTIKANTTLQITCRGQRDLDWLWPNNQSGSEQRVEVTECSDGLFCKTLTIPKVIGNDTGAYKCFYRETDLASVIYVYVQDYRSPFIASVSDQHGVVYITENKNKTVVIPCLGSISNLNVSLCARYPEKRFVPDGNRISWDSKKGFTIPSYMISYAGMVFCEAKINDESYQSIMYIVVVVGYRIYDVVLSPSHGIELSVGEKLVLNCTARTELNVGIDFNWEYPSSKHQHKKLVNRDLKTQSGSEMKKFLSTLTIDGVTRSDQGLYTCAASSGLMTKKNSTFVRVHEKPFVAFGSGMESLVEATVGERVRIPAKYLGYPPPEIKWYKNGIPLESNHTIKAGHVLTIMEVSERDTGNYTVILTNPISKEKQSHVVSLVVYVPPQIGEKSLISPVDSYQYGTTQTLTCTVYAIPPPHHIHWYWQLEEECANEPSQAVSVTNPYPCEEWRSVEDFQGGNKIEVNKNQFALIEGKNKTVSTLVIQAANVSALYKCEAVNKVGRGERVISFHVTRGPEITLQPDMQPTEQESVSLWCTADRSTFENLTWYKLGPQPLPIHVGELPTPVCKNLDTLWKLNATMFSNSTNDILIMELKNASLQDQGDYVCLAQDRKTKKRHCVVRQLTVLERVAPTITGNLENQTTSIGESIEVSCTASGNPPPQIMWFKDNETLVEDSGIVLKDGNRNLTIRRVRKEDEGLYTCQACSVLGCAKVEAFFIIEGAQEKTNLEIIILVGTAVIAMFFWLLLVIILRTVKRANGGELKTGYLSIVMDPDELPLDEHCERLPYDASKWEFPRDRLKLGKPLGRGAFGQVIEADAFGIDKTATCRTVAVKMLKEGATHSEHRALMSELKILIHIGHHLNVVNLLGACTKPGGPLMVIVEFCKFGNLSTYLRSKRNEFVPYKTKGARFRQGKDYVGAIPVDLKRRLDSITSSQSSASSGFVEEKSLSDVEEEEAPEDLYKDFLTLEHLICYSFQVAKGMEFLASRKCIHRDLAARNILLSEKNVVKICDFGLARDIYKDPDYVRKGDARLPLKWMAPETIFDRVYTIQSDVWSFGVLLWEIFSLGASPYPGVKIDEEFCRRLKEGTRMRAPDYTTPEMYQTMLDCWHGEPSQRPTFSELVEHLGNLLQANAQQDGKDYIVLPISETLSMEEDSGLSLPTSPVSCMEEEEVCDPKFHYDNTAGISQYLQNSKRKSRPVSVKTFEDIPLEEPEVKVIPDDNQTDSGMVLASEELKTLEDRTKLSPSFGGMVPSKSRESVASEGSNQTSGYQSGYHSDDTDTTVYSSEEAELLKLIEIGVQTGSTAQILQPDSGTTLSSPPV

IC50 [1] [µM] | IC50 [2] [µM] | Ki [1] [µM] | inhibition [3] [%] | SMILES
4.4 | > 100 |  |  | O=C(Nc1cccc(C(F)(F)F)c1)Nc1ccccc1Cl
50 | > 100 | 25 | 8 | Cc1oc(-c2ccccc2)nc1COc1cccc(CO)c1
0.62 | 0.86 |  |  | c1ccc2c3c([nH]c2c1)-c1n[nH]cc1CCC3
